Experiments:
[1] = system: MRPS14, NDUFA6, EGFR, AKT, mutant p53; assay: Western blot of HSP70 client proteins in human tumor cell lines; assay type: cell-based
Procedure: Proteins were identified using False Discovery Rate (FDR) values less than 10% and p values less than 0.05. FIG. 3C: Three different melanoma cell lines (WM983B, WM4265, and 1205Lu) were treated with the indicated concentrations of AP-4-139B for 24 hours. Cell lysates were subjected to Western blot analysis, and immunoblotted for NDUFA6, MRPS14, and GAPDH (loading control). FIGS. 3D-3E: HT-29 (FIG. 3D) and LS411N (FIG. 3E) CRC cell lines were treated with the indicated concentrations of PET-16 or AP-4-139B for 48 hours. Cell lysates were subjected to Western blot analysis, and immunoblotted for EGFR, MRPS14, AKT, Cleaved Lamin A (CLA), Cleaved Caspase 3 (CC3), HSP70, HSP90 and GAPDH (loading control). FIG. 3F: HT-29 cells were treated with the indicated concentration of AP-4-139B, Gamitrinib (G-TPP), or VY-3-277 (negative control) for 48 hours. Cell lysates were subjected to Western blot analysis, and immunoblotted for HSP90, AKT, p53, and MRPS14.
Cell lysates were subjected to Western blot analysis, and immunoblotted for MRPS14, NDUFA6, BAK, COXIV, and GAPDH (loading control).
Antibodies used were purchased from: p53 (Ab-6) (DO-1, Millipore Sigma), p53 (1C12) (2524S), Cleaved Caspase 3 (9661S), Cleaved Lamin A (2035S), HSP90 (4877S), EGFR (4267S), HMGB1 (6893S), HSP70 (4873S), AKT (9272S), and GAPDH (2218S) (Cell Signaling, Danvers, MA, USA), MRPS14 (ab151118) (Abcam, Cambridge, MA, USA), NDUFA6 (GTX65550) (GeneTex, Irvine, CA, USA), BAK (H-211, sc-7873; Santa Cruz Biotechnology, Inc., Dallas, TX, USA), and HSP70 (C92F3A-5) (Enzo Life Sciences, Farmingdale, NY, USA). 17-AAG (Item No. 11039) and Metformin (Item No. 13118) were purchased from Cayman Chemical (Ann Arbor, MI, USA). Gamitrinib (G-TPP, HY-102007A) was purchased from MedChemExpress (Monmouth Junction, NJ, USA). All HSP70 inhibitors used were generated and confirmed by NMR. PLX-4720 was purchased from Chemietek (Catalog No. CT-P4720; Indianapolis, IN, USA). For in vitro studies, AP-4-139B was dissolved in DMSO. […]

[2] = molecular target: N-terminal HIS tagged HSP70 (Homo sapiens, UniProt P0DMV8); assay: Small molecule binding to HSP70 using SPR (Biacore T200)
Sequence of N-terminal HIS tagged HSP70 (P0DMV8 whole entry): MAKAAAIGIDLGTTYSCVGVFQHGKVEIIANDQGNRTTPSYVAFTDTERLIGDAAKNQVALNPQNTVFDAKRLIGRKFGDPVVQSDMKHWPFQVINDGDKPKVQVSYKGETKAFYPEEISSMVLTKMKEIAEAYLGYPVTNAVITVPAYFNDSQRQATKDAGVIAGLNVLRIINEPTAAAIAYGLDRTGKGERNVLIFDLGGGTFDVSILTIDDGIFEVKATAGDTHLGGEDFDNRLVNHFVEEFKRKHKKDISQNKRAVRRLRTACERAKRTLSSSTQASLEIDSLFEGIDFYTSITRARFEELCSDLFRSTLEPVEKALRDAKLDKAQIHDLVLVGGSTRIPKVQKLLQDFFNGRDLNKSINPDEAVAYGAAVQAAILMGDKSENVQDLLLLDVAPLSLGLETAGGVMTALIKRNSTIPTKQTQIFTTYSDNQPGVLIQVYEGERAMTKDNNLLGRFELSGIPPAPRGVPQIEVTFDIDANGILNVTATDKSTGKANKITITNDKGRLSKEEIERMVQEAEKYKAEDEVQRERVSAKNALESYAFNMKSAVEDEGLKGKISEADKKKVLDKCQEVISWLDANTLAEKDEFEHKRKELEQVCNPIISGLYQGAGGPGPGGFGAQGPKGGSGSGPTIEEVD
Procedure: SPR experiments were conducted using the Biacore T200. Approximately 20,000 RU of N-terminal HIS tagged HSP70 was immobilized on a multi-dentate NTA derivatized linear carboxylate sensor chip (NICH1500M, Xantec Bioanalytics). The running buffer was PBS containing 2 mM MgCl2, 0.05% Tween, and 5% DMSO. Test compounds were diluted at 20× final concentration in 100% DMSO and then diluted into running buffer without DMSO so that the DMSO concentrations in both the sample and the running buffer were similar. Flow rate was 30 μL/min, contact time for each sample concentration was 30 seconds, followed by a 60 second dissociation time. Data were analyzed using the Biacore evaluation software and the resulting sensograms exported and re-plotted in GraphPad Prism.
The next studies sought to determine whether AP-4-139B interacts directly with HSP70. To accomplish this, full-length His-tagged human HSP70 was used, and it was immobilized on a high affinity poly-Ni-NTA sensor chip for surface plasmon resonance experiments on a Biacore T200. This HSP70-loaded chip was incubated with AP-4-139B or the negative control VY-3-277. As a positive control the adenosine-derived HSP70 inhibitor Ver-155008 was used (Massey et al., Cancer Chemother Pharmacol. 2010 August; 66(3):535-45).

[3] = system: WM983B tumor xenografts; assay: WM983B melanoma xenograft in NSG mice; assay type: in vivo, mouse; details: 12.5 mg/kg i.p. twice per week
Procedure: WM983B tumor xenografts were established in NSG mice. […] Tumors were collected at the end of the experiment and assessed for the level of the client protein MRPS14.
FIG. 18 comprises a series of images illustrating IHC of WM983B treated tumors using IgG negative control or antisera to MRPS14t.
AP-4-139B was tested as a single agent in a WM983B melanoma xenograph in mice. WM983B tumor xenografts were established in NSG mice. […] Tumors were collected at the end of the experiment and assessed for the level of the client protein MRPS14.

c1ccc(-c2cn3nc(CCCCCC[P+](c4ccccc4)(c4ccccc4)c4ccccc4)sc3n2)cc1 [AP-4-139B, Triphenyl(6-(6-phenylimidazo[2,1-b][1,3,4]thiadiazol-2-yl)hexyl)phosphonium bromide]
level of HSP70/HSP90 client proteins EGFR, AKT, mutant p53 ([1]; HT-29 and LS411N, 48 hours): decreased
level of BAK and CoxIV and other mitochondrial proteins ([1]; colorectal cancer cell lines, IC50, 24 hours): unaffected
level of MRPS14 and NDUFA6 ([1]; several tumor cell lines): significantly decreased level of MRPS14 and NDUFA6
binding to sensor chips loaded with HSP70 [2]: reproducibly bound in concentration-dependent manner
level of client protein MRPS14 in tumors (IHC) [3]: lose mitochondrial protein MPS14
tumor growth, WM983B xenograft [3]: inhibit tumor growth
